These results are taken from US7034054B2, “Methods for the prevention and treatment of cerebral ischemia using non-alpha tocopherols” (Galileo Pharmaceuticals, Inc., priority 2000, dated 2006).

The subject of experiment [1] is cerebral ischemia induced in rats (MCAO). Kind of experiment: Animal cerebral infarct assay (Middle Cerebral Artery Occlusion, MCAO). Conditions: for reduce infarct size: rat; for total infarct volume relative to control animals / total ischemic damage relative to control animals: administered I.V. at the time of MCAO; for cerebral edema relative to control animals: administered at the time of MCAO; for cerebral edema relative to controls / total infarct volume relative to controls / total ischemic damage relative to controls: administered at the time of reperfusion. The format is in vivo, rat. The text has this:
This assay is used to assess the efficacy of the test agents in protecting the brain against necrosis following cerebral ischemia induced in rats. Middle Cerebral Artery Occlusion (MCAO) is a widely used technique to induce transient focal cerebral ischemia in animal models. […] Furthermore, this model accurately represents the involvement of middle cerebral artery (MCA), the most affected vessel in human stroke, and also allows reperfusion as it happens in humans. MCAO by a two-hour occlusion is used to produce the maximum size of cortical infarction without increased mortality at twenty-four hours.
Male Wistar rats (Hadan, Ind.) weighing 300-350 g were allowed free access to water and commercial rodent diet under standard laboratory conditions. The room temperature was maintained at 20-23° C. and room illumination was on a 12/12-hour light/dark cycle. The rats were acclimatized to the laboratory environment 5 to 7 days prior to the study.
Before surgery, the animals were fasted overnight, but had free access to water. The-rats were anesthetized with 3.0% isoflurane (Aerrane, Front Dodge, Iowa) in […] and the animal's neck was shaved and sterilized before the operation. The animals were subjected to two hours MCAO using a modified intraluminal filament technique. A midline incision on the ventral part of the neck was made to expose external and internal carotid arteries. The right external and common carotid arteries were ligated by a suture (silk 5/0, Carlisle Laboratories, Farmers Branch, Tex.) and the right internal artery was temporarily ligated by a microvascular clip (Fine Science Tool Inc., Foster City, Calif.). A small incision was made in the common carotid artery and a nylon filament, its tip rounded by heating, prepared from a fishing line (Stren Fishing Lines, Wilmington, Del.) was inserted from the right common carotid artery. The filament was advanced into the internal carotid artery 18-20 mm from the point of bifurcation of internal and external arteries and a suture was tightly ligated around the filament. Two hours post occlusion, the animals were re-anesthetized to allow reperfusion for the remaining of the experiment by removal of the filament.
Anesthesia was maintained by inhalation of 3.0% isoflurane in […] throughout the entire procedure. The exterior site of the right femoral vein was shaved and sterilized prior to surgery. A 3 cm incision was made in the right groin region and the femoral vein was isolated. A small incision was made on the femoral vein temporarily ligated with a microvascular clip to introduce and advance a polyethylene (PE-50) catheter (Becton. Dickinson and Co., Sparks, Md.). The catheter was secured in place with suture (silk 5/0, Cailisle Laboratories, Farmers Branch, Tex.). The other end of the catheter was attached to a syringe filled with the heparinized saline for the bolus injection. Using a hemostat a pocket was made subcutaneously on the back of the animal so the PE catheter can be brought up to the exteriorization point at the nape of the neck for either a bolus injection or a continuous injection by an osmotic pump.
A standard rat gavage tube (Popper & Sons Inc, NY) was attached to a 3-cc hypodermic syringe. The animal was held by the shoulder in a vertical position. The feeding tube was placed into the mouth then advanced until it reached the stomach (the approximate insertion length of the tube was measured prior to the feeding). The content of the syringe was slowly delivered, and then the tube is withdrawn.
The animals are sacrificed by CO2 asphyxiation (dry ice) 24 hours post-MCAO. The skull is removed to expose the brain using a small bone cutter and starting from the base of the skull. The brain is removed quickly, rinsed in a chilled saline and placed on a rat brain tissue slicer (ASI instrument, Mich.). Seven 2-mm thick coronal slices are cut from each brain using razor blades. […]

The conditions of experiment [2]: Evans resorption sterility test for vitamin E; cited from earlier work.
Setting [3] is: 6 mg/kg, administered IV at MCAO.
[4] abbreviates: 0.60 mg/kg, administered IV at MCAO.
Where [5] appears, read: administered at reperfusion (FIG. 2).
[6] abbreviates: administered at the time of MCAO (FIG. 1).
Setting [7] is: at the same concentration, MCAO assay.

Turning to `Cc1c(C)c2c(c(C)c1O)CC[C@@](C)(CCC[C@H](C)CCC[C@H](C)CCCC(C)C)O2` (relative stereo) [alpha-tocopherol, [2R-2R*(4R*,8R*)]-3,4-dihydro-2,5,7,8-tetramethyl-2-(4,8,12-trimethyltridecyl)-2H-1-benzopyran-6-ol, reference compound], the reduce infarct size in experiment [1] (setting [3]) turned out to be 42%.

`Cc1cc(O)cc2c1O[C@](C)(CCC[C@H](C)CCC[C@H](C)CCCC(C)C)CC2` (relative stereo) [delta-tocopherol, [2R-[2R*(4R*,8R*)]]-3,4-dihydro-2,8-dimethyl-2-(4,8,12-trimethyltridecyl)-2H-1-benzo-pyran-6-ol] came in with a reduce infarct size in experiment [1] (setting [4]) of 52%. The “reduction of total infarct volume compared with alpha-tocopherol” value in experiment [1] (MCAO assay) is reported as “more effective”. The “activity relative to natural alpha-tocopherol” value in experiment [2] is “one hundredth”.

`Cc1c(O)cc2c(c1C)OC(C)(CCC(=O)O)CC2` (stereo not drawn) [gamma-CEHC, 2,7,8-trimethyl-2-(β-carboxy-ethyl)-6-hydroxy chroman]: in experiment [1], the “total infarct volume relative to control animals” value was “significantly reduced”, the “total ischemic damage relative to control animals” value is “significantly reduced”, the “cerebral edema relative to control animals” value is given as “reduced” and the “cerebral edema relative to controls” value is “reduction”. In experiment [1], the “total infarct volume relative to controls” value is reported as “reduction” and the “total ischemic damage relative to controls” value is listed as “reduction”. Further, the total infarct size result in experiment [1] (setting [5]) is recorded as “able to reduce total infarct size”. The total infarct size result in experiment [1] (setting [6]) is reported as “able to reduce total infarct size”. In addition, the decreased neuronal damage in experiment [1] (drug ranges 0.1-5 mg/kg, IV at MCAO) is reported as 50-65%.

In experiment [1] (setting [4]), `Cc1c(O)cc2c(c1C)OC(C)(CCCC(C)CCCC(C)CCCC(C)C)CC2` (centres unmarked) [gamma-tocopherol, 3,4-dihydro-2,7,8-trimethyl-2-(4,8,12-trimethyltridecyl)-2H-1-benzyopyran-6-ol] came in with a reduce infarct size of 81%. The molecule also gave a reduce infarct size in experiment [1] (setting [3]) of 82%. Also, the reduce infarct size in experiment [1] (10.00 mg/kg by gavage, 3 hours pre-MCAO) is on record as 77%. Also, in experiment [1], the “total infarct volume relative to control animals” value is recorded as “significantly reduced”, the “total ischemic damage relative to control animals” value is recorded as “significantly reduced”, the “cerebral edema relative to control animals” value is “significantly reduced” and the “cerebral edema relative to controls” value is recorded as “reduction”. In addition, in experiment [1], the “total infarct volume relative to controls” value is listed as “reduction” and the “total ischemic damage relative to controls” value is “reduction”. Also, in experiment [1] (setting [5]), the total infarct size entry is recorded as “able to reduce total infarct size”. In experiment [1] (setting [6]), the total infarct size result is listed as “able to reduce total infarct size”. In experiment [1] (setting [7]), the “reduction of tissue edema compared with alpha- or delta-tocopherol” value is on record as “more effective” and the “reduction of total infarct volume compared with alpha- or delta-tocopherol” value is “more effective”.
